# Laboratory results as given in patent publication US11835523B2, “Assays for improving automated antimicrobial susceptibility testing accuracy” (priority 2018, dated 2023).
# Assays:
# Type in all cases: cell-based
# beta lactamase = assay: Beta-lactamase inhibitor assay with nitrocefin probe (Example 1, FIG. 1); conditions: 4 μg/mL inhibitor, 0.25 mg/mL nitrocefin, 35° C., 4 hours
# Method: By comparing the signal from an “inhibited” well to one containing the probe and microbes alone, the efficacy of the inhibitor may be tested.
# Microbes were prepared by diluting colonies into saline to reach a McFarland value of 0.5, which was verified using a spectrophotometer. This was diluted 1:20 into saline and 50 μI of inoculum was added to wells of a 384-well plate. For each strain, 25 μI of solutions containing either 0.25 mg/mL nitrocefin alone (Nitro), 0.25 mg/mL nitrocefin and 4 μg/mL clauvulanate (Nitro Clay), or 0.25 mg/mL nitrocefin and 4 μg/mL tazobactam (Nitro Tazo) were added to duplicate wells. Inoculated plates were incubated at 35° C., shaking at 150 rpm for 4 hours. Absorbance was read at 490 nm and values shown in FIG. 1 are the absorbance in the indicated condition minus the absorbance from microbial inoculum alone without nitrocefin. A greater value indicates microbial ability to degrade nitrocefin, and thus, the presence of a beta lactamase. A reduction in absorbance value in the presence of an inhibitor indicates the beta lactamase present is sensitive to the inhibitor.
# K pneumoniae [1] = assay: Carbapenemase assay performed with dried reagents (Example 4); conditions: 4 hours
# Source text: (§1) In an exemplary embodiment, the assay comprises a minimum of 4 wells and utilizes a sample comprising intact microbes. The first well (Well1) comprises a medium such as a buffered saline solution or a nutrient broth, a carbapenem, ionic zinc, and a pH indictor. The second well (Well2) comprises the medium, a carbapenem, ionic zinc, a pH indictor, and a microbe sample comprising <1×10^8 CFU microbes. The third well (Well3) comprises the medium, ionic zinc, and a pH indictor. The fourth well (Well4) comprises the medium, ionic zinc, a pH indictor, and a microbe sample comprising <1×10^8 CFU microbes. The following formula can then be utilized to normalize the result: Normalized Activity=(Well1−Well2)−(Well3−Well4) [Formula 1]
# (§2) Example 4. Microbes were prepared by diluting colonies into saline to reach a McFarland value of 0.5, which was verified using a spectrophotometer. 100 μL of the microbe solution was added to each of 2 wells in a vacuum-dried 96-well plate (Well2, Well4). 100 μL of saline was added to 2 separate wells on the plate (Well1 and Well3). Following addition of microbial or saline solutions, the final concentrations of the contents in each well were: 300 μg/mL imipenem, 0.05 mM ZnSO4, and 10 μM Fluorescein Na Salt, pH 7.8, (Well1, Well2); only 0.05 mM ZnSO4 and 10 μM Fluorescein Na Salt, pH 7.8, were present in the third and four wells (Well3, Well4). Plates were incubated, shaking at 35° C. for 4 hours and fluorescence of the wells was read at Em=490/Ex=510. The values reported were calculated to determine the hydrolysis of imipenem by the microbes using Equation 1.
# E coli [2] = assay: as above; conditions: E coli ATCC 25922, known carbapenemase none, 300 μg/mL imipenem, 4 hours
# Source text: as §1, §2
# K. pneumoniae = assay: Acidimetric carbapenemase assay, four wells, intact microbes (Example 2); conditions: 5 mg/mL imipenem solution added 1:1, 4 hours
# Source text: as §1
# (§3) The above says that imipenem degradation is the change in pH (e.g. loss of signal) due to the presence of microbes less the change in pH (e.g. loss of signal) due to microbes in solution only.
# (§4) Example 2. Microbes were prepared by diluting colonies into saline to reach a McFarland value of 0.5, which was verified using a spectrophotometer. 100 μL of the microbe solution was added to each of 2 wells in a 96-well plate. 100 μL of saline was added to 2 separate wells on the plate. 100 μL of an imipenem solution containing 5 mg/mL imipenem, 0.1 mM ZnSO4, and 10 μM Fluorescein Na salt, pH 8, was added to one of the microbe-containing wells (Well2) and one of the saline wells (Well1). 100 μL of a negative control solution containing 0.1 mM ZnSO4, and 10 μM Fluorescein Na salt pH 7.5, was added to one of the microbe-containing wells (Well4) and one of the saline wells (Well3). Plates were incubated, shaking at 35° C. for 4 hours and fluorescence of the wells was read at […]. The values reported were calculated to determine the hydrolysis of imipenem by the microbes using Equation 1.
# E. coli = assay: as above; set-up: key: Normalized activity = (Well1−Well2)−(Well3−Well4), pH indicator signal; conditions: 5 mg/mL imipenem solution added 1:1, 4 hours
# Source text: as §1, §3, §4
# E coli [3] = assay: Carbapenemase assay at various concentrations of imipenem (Example 3); conditions: within 4 hours
# Source text: as §1
# (§5) Example 3. Microbes were prepared by diluting colonies into saline to reach a McFarland value of 0.5, which was verified using a spectrophotometer. 25 μL of the microbe solution was added to each of 2 wells in a 384-well plate. 25 μL of saline was added to 2 separate wells on the plate. 25 μL of an imipenem solution containing imipenem, 0.1 mM ZnSO4, and 10 μm Fluorescein Na Salt, pH 8, was added to one of the microbe-containing wells (Well2) and one of the saline wells […]. 25 μL of a negative control solution containing 0.1 mM ZnSO4, and 10 μM Fluorescein Na Salt, pH 7.5, was added to one of the microbe containing wells (Well4) and one of the saline wells (Well3). Plates were incubated, shaking at 35° C. for 3 hours and fluorescence of the wells was read at Em=490/Ex=510. This organization of the assay was performed multiple times, varying the concentration of imipenem in solution. The assay was run with final imipenem concentrations of 50 μg/mL, 125 μg/mL, 250 μg/mL, 500 μg/mL, 1250 μg/mL, and 2500 μg/mL. The values reported were calculated to determine the hydrolysis of imipenem by the microbes using Equation 1.
# K pneumoniae [4] = assay: as above; set-up: unit not given here; conditions: within 4 hours
# Source text: as §1, §5
smiles,measurement,setting,value
O=C(O)[C@H]1/C(=C/CO)O[C@@H]2CC(=O)N21 [clauvulanate],inhibitor activity against strains with known beta lactamases (reduction in nitrocefin absorbance at 490 nm),beta lactamase,active
C[C@@H](O)[C@H]1C(=O)N2C(C(=O)O)=C(SCCN=CN)C[C@H]12 [imipenem],Carbapenemase Activity,"K pneumoniae [1]; K pneumoniae ATCC 700603, known carbapenemase none, 300 μg/mL imipenem",−2026
same,Carbapenemase Activity,"K pneumoniae [1]; K pneumoniae ATCC BAA-1705, known carbapenemase KPC2, 300 μg/mL imipenem",19742
same,Carbapenemase Activity,"K pneumoniae [1]; K pneumoniae ATCC BAA-2814, known carbapenemase KPC3, 300 μg/mL imipenem",18057
same,Carbapenemase Activity,E coli [2],−6116
same,Carbapenemase Activity,"K. pneumoniae; K. pneumoniae 700603, known carbapenemase none",−2659.8725
same,Carbapenemase Activity,"K. pneumoniae; K. pneumoniae CDC CNP 03, known carbapenemase IMP",3662.106
same,Carbapenemase Activity,"K. pneumoniae; K. pneumoniae CDC CNP 08, known carbapenemase OXA-181",1323.2385
same,Carbapenemase Activity,"K. pneumoniae; K. pneumoniae CDC CNP 09, known carbapenemase VIM",2315.76
same,Carbapenemase Activity,"K. pneumoniae; K. pneumoniae SML86, known carbapenemase none",−1861.1485
same,Carbapenemase Activity,"K. pneumoniae; K. pneumoniae SML87, known carbapenemase none",−3075.4205
same,Carbapenemase Activity,"E. coli; E. coli 25922, known carbapenemase none",−2106.4115
same,Carbapenemase Activity,"E. coli; E. coli AEL18, known carbapenemase none",−1551.4885
same,Carbapenemase Activity,"E. coli; E. coli AEL19, known carbapenemase none",−696.4825
same,Carbapenemase Activity,"E. coli; E. coli AEL 20, known carbapenemase none",−882.3165
same,Carbapenemase Activity,"E. coli; E. coli AR0346, known carbapenemase none, ESBL +",−2560.861
same,Carbapenemase Activity,"E. coli; E. coli AR0348, known carbapenemase none",−2960.1665
same,Carbapenemase Activity,"E. coli; E. coli AR0349, known carbapenemase none, ESBL +",−2861.008
same,Carbapenemase Activity,"E. coli; E. coli CDC BIT 01, known carbapenemase KPC",8803.9255
same,Carbapenemase Activity,"E. coli; E. coli CDC CNP 27, known carbapenemase none, ESBL +",−2401.2335
same,Carbapenemase Activity,"E. coli; E. coli CDC CNP 38, known carbapenemase NDM",19534.8825
same,Carbapenemase Activity,"E. coli; E. coli CDC CNP 54, known carbapenemase none, Amp beta lactamase",−1950.443
same,Carbapenemase Activity,"E. coli; E. coli CDC CNP 73, known carbapenemase KPC",3480.1845
same,Carbapenemase Activity,"E. coli; E. coli CDC CRE 03, known carbapenemase KPC-3",7149.729
same,Carbapenemase Activity,"E. coli; E. coli CDC CRE 07, known carbapenemase NDM",27447.359
same,Carbapenemase Activity,"E. coli; E. coli CDC CRE 17, known carbapenemase NDM",36400.9235
same,Carbapenemase Activity,"E. coli; E. coli CDC CRE 26, known carbapenemase NDM",41326.61
same,Carbapenemase Activity,"E. coli; E. coli SML 19, known carbapenemase none",−2540.0545
same,Carbapenemase Activity,"E. coli; E. coli SML20, known carbapenemase none",−2734.3825
same,Carbapenemase Activity,"E. coli; E. coli TRICORE 71, known carbapenemase none",−1138.2225
same,Carbapenemase Activity,"E. coli; E. coli TRICORE 72, known carbapenemase none",−2554.797
same,Carbapenemase Activity in various concentrations of imipenem,"E coli [3]; E coli AR 69, known carbapenemase NDM, 50 μg/mL imipenem",1111
same,Carbapenemase Activity in various concentrations of imipenem,"E coli [3]; E coli AR 69, known carbapenemase NDM, 125 μg/mL imipenem",3367
same,Carbapenemase Activity in various concentrations of imipenem,"E coli [3]; E coli AR 69, known carbapenemase NDM, 250 μg/mL imipenem",2827
same,Carbapenemase Activity in various concentrations of imipenem,"E coli [3]; E coli AR 69, known carbapenemase NDM, 500 μg/mL imipenem",2300.5
same,Carbapenemase Activity in various concentrations of imipenem,"E coli [3]; E coli AR 69, known carbapenemase NDM, 1250 μg/mL imipenem",1908.5
same,Carbapenemase Activity in various concentrations of imipenem,"E coli [3]; E coli AR 69, known carbapenemase NDM, 2500 μg/mL imipenem",1902.5
same,Carbapenemase Activity in various concentrations of imipenem,"E coli [3]; E coli AR 114, known carbapenemase KPC3, 50 μg/mL imipenem",930.5
same,Carbapenemase Activity in various concentrations of imipenem,"E coli [3]; E coli AR 114, known carbapenemase KPC3, 125 μg/mL imipenem",3793.5
same,Carbapenemase Activity in various concentrations of imipenem,"E coli [3]; E coli AR 114, known carbapenemase KPC3, 250 μg/mL imipenem",3342.5
same,Carbapenemase Activity in various concentrations of imipenem,"E coli [3]; E coli AR 114, known carbapenemase KPC3, 500 μg/mL imipenem",2784.5
same,Carbapenemase Activity in various concentrations of imipenem,"E coli [3]; E coli AR 114, known carbapenemase KPC3, 1250 μg/mL imipenem",2173.5
same,Carbapenemase Activity in various concentrations of imipenem,"E coli [3]; E coli AR 114, known carbapenemase KPC3, 2500 μg/mL imipenem",1825.5
same,Carbapenemase Activity in various concentrations of imipenem,"E coli [3]; E coli ATCC 25922, known carbapenemase none, 50 μg/mL imipenem",−70.5
same,Carbapenemase Activity in various concentrations of imipenem,"E coli [3]; E coli ATCC 25922, known carbapenemase none, 125 μg/mL imipenem",−522
same,Carbapenemase Activity in various concentrations of imipenem,"E coli [3]; E coli ATCC 25922, known carbapenemase none, 250 μg/mL imipenem",−599.5
same,Carbapenemase Activity in various concentrations of imipenem,"E coli [3]; E coli ATCC 25922, known carbapenemase none, 500 μg/mL imipenem",−558.5
same,Carbapenemase Activity in various concentrations of imipenem,"E coli [3]; E coli ATCC 25922, known carbapenemase none, 1250 μg/mL imipenem",−463.5
same,Carbapenemase Activity in various concentrations of imipenem,"E coli [3]; E coli ATCC 25922, known carbapenemase none, 2500 μg/mL imipenem",−282
same,Carbapenemase Activity in various concentrations of imipenem,"K pneumoniae [4]; K pneumoniae AR 34, known carbapenemase IMP, 50 μg/mL imipenem",1034.5
same,Carbapenemase Activity in various concentrations of imipenem,"K pneumoniae [4]; K pneumoniae AR 34, known carbapenemase IMP, 125 μg/mL imipenem",2776.5
same,Carbapenemase Activity in various concentrations of imipenem,"K pneumoniae [4]; K pneumoniae AR 34, known carbapenemase IMP, 250 μg/mL imipenem",2456.5
same,Carbapenemase Activity in various concentrations of imipenem,"K pneumoniae [4]; K pneumoniae AR 34, known carbapenemase IMP, 500 μg/mL imipenem",1807.5
same,Carbapenemase Activity in various concentrations of imipenem,"K pneumoniae [4]; K pneumoniae AR 34, known carbapenemase IMP, 1250 μg/mL imipenem",1148
same,Carbapenemase Activity in various concentrations of imipenem,"K pneumoniae [4]; K pneumoniae AR 34, known carbapenemase IMP, 2500 μg/mL imipenem",637.5
same,Carbapenemase Activity in various concentrations of imipenem,"K pneumoniae [4]; K pneumoniae ATCC BAA-2342, known carbapenemase KPC, 50 μg/mL imipenem",1817
same,Carbapenemase Activity in various concentrations of imipenem,"K pneumoniae [4]; K pneumoniae ATCC BAA-2342, known carbapenemase KPC, 125 μg/mL imipenem",4702.5
same,Carbapenemase Activity in various concentrations of imipenem,"K pneumoniae [4]; K pneumoniae ATCC BAA-2342, known carbapenemase KPC, 250 μg/mL imipenem",4270.5
same,Carbapenemase Activity in various concentrations of imipenem,"K pneumoniae [4]; K pneumoniae ATCC BAA-2342, known carbapenemase KPC, 500 μg/mL imipenem",3708
same,Carbapenemase Activity in various concentrations of imipenem,"K pneumoniae [4]; K pneumoniae ATCC BAA-2342, known carbapenemase KPC, 1250 μg/mL imipenem",3251
same,Carbapenemase Activity in various concentrations of imipenem,"K pneumoniae [4]; K pneumoniae ATCC BAA-2342, known carbapenemase KPC, 2500 μg/mL imipenem",3114.5
C[C@]1(Cn2ccnn2)[C@H](C(=O)O)N2C(=O)C[C@H]2S1(=O)=O [tazobactam],inhibitor activity against strains with known beta lactamases (reduction in nitrocefin absorbance at 490 nm),beta lactamase,active
